In article PMC10746543, “Design principles for cyclin K molecular glue degraders” (Nature Chemical Biology, 2023):
“And” between values parts separate entries of the source, which are not always exact repeats. Identical values can stand only once. Like-named read-outs stand apart in the source and are kept apart here.

Key:
CDK12–cyclin K and DDB1 = target: T1, CDK12–cyclin K and DDB1 (Homo sapiens, UniProt Q16531+Q9NYV4, K965R); experiment: TR-FRET ternary complex formation assay (compound titration); type: binding
T1 construct: His6–CDK12 (a.a. 713–1,052); full-length or beta-propeller B domain deletion (ΔBPB: a.a. 396–705 deleted) constructs of His6–DDB1ΔBPB, StrepII–Avi–DDB1, or His6–Spy–DDB1; made in house; host or cells: Trichoplusia ni High Five insect cells (baculovirus)
T1 sequence (Q9NYV4 713-1052 K965R): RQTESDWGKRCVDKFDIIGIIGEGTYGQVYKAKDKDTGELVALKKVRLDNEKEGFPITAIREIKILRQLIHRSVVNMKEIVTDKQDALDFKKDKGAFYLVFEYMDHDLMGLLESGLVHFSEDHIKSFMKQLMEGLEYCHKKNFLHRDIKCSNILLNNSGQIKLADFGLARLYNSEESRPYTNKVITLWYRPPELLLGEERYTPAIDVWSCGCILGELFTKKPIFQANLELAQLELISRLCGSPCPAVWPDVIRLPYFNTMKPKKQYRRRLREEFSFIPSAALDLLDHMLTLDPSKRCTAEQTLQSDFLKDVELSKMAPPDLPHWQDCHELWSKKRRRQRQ
T1 sequence (O75909 1-267 partner): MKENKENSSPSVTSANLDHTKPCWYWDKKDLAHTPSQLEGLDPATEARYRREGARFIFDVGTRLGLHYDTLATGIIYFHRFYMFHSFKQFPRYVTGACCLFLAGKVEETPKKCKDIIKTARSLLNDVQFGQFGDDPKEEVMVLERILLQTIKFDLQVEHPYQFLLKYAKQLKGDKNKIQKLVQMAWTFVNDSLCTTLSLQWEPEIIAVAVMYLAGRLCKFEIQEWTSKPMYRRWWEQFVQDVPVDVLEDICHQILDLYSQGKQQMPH
T1 sequence (Q16531 whole entry): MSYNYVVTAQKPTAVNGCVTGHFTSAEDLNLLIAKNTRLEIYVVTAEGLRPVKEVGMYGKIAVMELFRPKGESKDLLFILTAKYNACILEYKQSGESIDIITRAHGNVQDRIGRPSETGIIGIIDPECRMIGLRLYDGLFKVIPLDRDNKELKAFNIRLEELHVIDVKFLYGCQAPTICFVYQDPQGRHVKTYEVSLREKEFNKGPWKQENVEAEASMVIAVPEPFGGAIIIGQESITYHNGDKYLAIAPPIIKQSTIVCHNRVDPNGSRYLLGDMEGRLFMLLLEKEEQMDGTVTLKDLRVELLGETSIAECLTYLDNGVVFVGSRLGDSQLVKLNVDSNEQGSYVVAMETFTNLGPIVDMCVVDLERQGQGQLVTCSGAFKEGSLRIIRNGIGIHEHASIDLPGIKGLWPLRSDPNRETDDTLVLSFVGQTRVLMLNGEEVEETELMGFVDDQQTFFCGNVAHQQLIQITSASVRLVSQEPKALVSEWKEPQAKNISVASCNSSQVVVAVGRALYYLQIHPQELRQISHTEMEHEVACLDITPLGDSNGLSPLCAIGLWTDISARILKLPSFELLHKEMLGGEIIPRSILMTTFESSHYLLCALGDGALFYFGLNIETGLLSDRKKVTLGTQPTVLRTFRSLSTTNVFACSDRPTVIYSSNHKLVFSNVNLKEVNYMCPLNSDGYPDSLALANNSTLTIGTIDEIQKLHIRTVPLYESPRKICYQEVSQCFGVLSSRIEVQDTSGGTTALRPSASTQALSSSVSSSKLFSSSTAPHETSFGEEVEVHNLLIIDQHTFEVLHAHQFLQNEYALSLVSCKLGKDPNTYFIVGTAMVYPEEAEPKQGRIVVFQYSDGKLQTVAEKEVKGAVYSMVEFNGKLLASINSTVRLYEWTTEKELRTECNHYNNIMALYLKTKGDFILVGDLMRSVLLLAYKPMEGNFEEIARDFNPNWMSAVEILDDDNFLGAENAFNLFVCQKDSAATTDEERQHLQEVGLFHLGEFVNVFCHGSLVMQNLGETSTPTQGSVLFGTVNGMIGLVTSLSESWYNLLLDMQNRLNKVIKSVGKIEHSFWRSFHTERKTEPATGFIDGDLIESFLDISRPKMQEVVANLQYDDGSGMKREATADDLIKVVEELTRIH
How it was run: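 Background fluorescence is reduced by reading 70 μs after excitation, and complex formation is followed as the 520:490 nm fluorescence ratio.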

[1] = system: cyclin K–eGFP degradation reporter; experiment: Cyclin K reporter stability analysis (dual-color cyclin K–eGFP reporter); type: cell-based, human; details: source data sheet correlations; read-out: DC50
How it was run: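 HEK293T–Cas9 cells carrying the cyclin K–eGFP reporter were seeded at 1 × 10^6 ml^−1 and exposed to drug or DMSO for 5 h. Flow cytometry gave geometric means of eGFP and mCherry in round, mCherry-positive cells. The eGFP/mCherry ratio was normalized to the mean of three DMSO controls.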

HEK293T cells = experiment: Drug sensitivity assay (CellTiter-Glo viability) with or without MLN4924 pretreatment; type: cell-based, human; details: for EC50: Homo sapiens, HEK-293T
How it was run: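 First, cells (HEK293T–Cas9, 0.15 × 10^6 ml^−1) are exposed to DMSO or 100 nM MLN4924. Next, drugs follow at 2 h. Finally, CellTiter-Glo is read at day 3 and normalised to DMSO.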

CDK12–cyclin K = CDK12–cyclin K (Homo sapiens, UniProt Q9NYV4); experiment: Lanthascreen kinase binding assay, CDK12; details: for Lanthascreen raw signal, sheet CDK12: series r37, duplicates
Chain of CDK12–cyclin K (Q9NYV4 713-1052): as the sequence (Q9NYV4 713-1052 K965R) above, with R253K counted along it
Chain of CDK12–cyclin K (O75909 1-267 partner limits assumed): as the sequence (O75909 1-267 partner) above
Description: (§1) Lanthascreen experiments were performed using commercially available reagents (Thermo Fisher) and according to the manufacturer’s instructions.

CDK9–cyclin T = target: T2, CDK9–cyclin T (Homo sapiens, UniProt P50750); experiment: Lanthascreen kinase binding assay, CDK9; details: for Lanthascreen TR-FRET signal (raw ratio), sheet CDK9: third titration set (r25), duplicates
T2 construct: purchased Thermo Fisher
T2 sequence (P50750 whole entry): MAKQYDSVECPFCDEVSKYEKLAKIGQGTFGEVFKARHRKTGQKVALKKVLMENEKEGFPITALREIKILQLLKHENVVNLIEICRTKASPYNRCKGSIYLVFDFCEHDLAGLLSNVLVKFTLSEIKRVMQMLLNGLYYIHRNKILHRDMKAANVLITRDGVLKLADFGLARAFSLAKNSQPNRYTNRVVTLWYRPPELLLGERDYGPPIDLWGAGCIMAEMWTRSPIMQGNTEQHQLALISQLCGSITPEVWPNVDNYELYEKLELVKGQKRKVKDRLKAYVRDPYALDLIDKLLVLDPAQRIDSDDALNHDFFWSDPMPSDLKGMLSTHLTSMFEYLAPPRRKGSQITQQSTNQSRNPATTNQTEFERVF
T2 sequence (O60563 whole entry partner): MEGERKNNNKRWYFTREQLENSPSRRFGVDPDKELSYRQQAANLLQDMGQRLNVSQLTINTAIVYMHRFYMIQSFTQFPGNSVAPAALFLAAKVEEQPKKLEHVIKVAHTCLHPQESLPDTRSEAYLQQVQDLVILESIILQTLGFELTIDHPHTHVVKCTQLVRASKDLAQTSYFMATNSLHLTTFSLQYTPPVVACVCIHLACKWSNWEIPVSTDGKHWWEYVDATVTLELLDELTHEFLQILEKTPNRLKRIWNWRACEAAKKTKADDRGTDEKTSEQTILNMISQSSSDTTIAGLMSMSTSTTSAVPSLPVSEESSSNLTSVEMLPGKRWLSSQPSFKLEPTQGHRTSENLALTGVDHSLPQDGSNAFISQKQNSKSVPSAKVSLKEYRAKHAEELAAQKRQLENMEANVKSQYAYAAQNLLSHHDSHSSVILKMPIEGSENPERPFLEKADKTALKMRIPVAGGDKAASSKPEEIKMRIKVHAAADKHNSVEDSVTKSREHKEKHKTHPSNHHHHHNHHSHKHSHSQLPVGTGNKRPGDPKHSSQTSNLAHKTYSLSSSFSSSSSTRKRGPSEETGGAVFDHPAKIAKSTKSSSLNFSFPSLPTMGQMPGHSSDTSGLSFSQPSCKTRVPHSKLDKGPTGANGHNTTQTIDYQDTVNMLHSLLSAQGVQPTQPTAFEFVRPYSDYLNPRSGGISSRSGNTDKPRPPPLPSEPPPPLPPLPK
Description: as §1

CDK2–cyclin A = target: T3, CDK2–cyclin A (Homo sapiens, UniProt P24941); experiment: Lanthascreen kinase binding assay, CDK2; details: for Lanthascreen signal, sheet CDK2: raw replicates, experiment r36-r46
T3 construct: purchased Thermo Fisher
Description: as §1

For `Cn1cc(-n2cnc3c(NCc4ccc(-c5ccccn5)cc4)nc(N4CCOCC4)nc32)cn1` [DS21], the “TR-FRET signal at compound concentration 4.68 nM” value (CDK12–cyclin K and DDB1; compound concentration 4.68 nM, raw replicate titration data) was 0.1432 and 0.1661, the “TR-FRET signal at compound concentration 21.6 nM” value (CDK12–cyclin K and DDB1; compound concentration 21.6 nM, raw replicate titration data) was 0.2041 and 0.2174 and the “TR-FRET signal at compound concentration 36 nM” value (CDK12–cyclin K and DDB1; compound concentration 36 nM, raw replicate titration data) was 0.3026 and 0.3362. The “TR-FRET signal at compound concentration 79.2001 nM” value (CDK12–cyclin K and DDB1; compound concentration 79.2001 nM, raw replicate titration data) was 0.4985 and 0.5183, the “TR-FRET signal at compound concentration 158.4 nM” value (CDK12–cyclin K and DDB1; compound concentration 158.4 nM, raw replicate titration data) was 0.7975 and 0.8115 and the “TR-FRET signal at compound concentration 309.6 nM” value (CDK12–cyclin K and DDB1; compound concentration 309.6 nM, raw replicate titration data) was 1.104 and 1.124. For the same molecule, the “TR-FRET signal at compound concentration 626.401 nM” value (CDK12–cyclin K and DDB1; compound concentration 626.401 nM, raw replicate titration data) was 1.537 and 1.587, the “TR-FRET signal at compound concentration 1252.8 nM” value (CDK12–cyclin K and DDB1; compound concentration 1252.8 nM, raw replicate titration data) was 1.789 and 1.917 and the “TR-FRET signal at compound concentration 2448 nM” value (CDK12–cyclin K and DDB1; compound concentration 2448 nM, raw replicate titration data) was 1.994 and 2.074. For the same molecule, the “TR-FRET signal at compound concentration 9936.01 nM” value (CDK12–cyclin K and DDB1; compound concentration 9936.01 nM, raw replicate titration data) was 2.1 and 2.149, the “TR-FRET signal at compound concentration 20016 nM” value (CDK12–cyclin K and DDB1; compound concentration 20016 nM, raw replicate titration data) was 2.044 and 2.1355 and the “DDB1–CDK12 complex formation, result in words” value (CDK12–cyclin K and DDB1; in vitro TR-FRET) was “poorer glues”. It also gave an EC50 (CDK12–cyclin K and DDB1; sheet MOESM7, read-out: log TR-FRET EC50 (converted)) of 299 nM, an EC50 (CDK12–cyclin K and DDB1; source data sheet correlations, read-out: TR-FRET EC50) of 299 nM and a DC50 [1] of 3120 nM. For the same molecule, the EC50 (HEK293T cells; Supplementary Fig. 5, HEK293T, CellTiter Glo, 72h, pre-treatment with 100 nM MLN4924, read-out: Viability EC50, with MLN4924) was 4860 nM, the EC50 (HEK293T cells; Supplementary Table 2, HEK293T viability, 72 h, compound alone, read-out: Cellular assays EC50) was 4940 nM and the Toxicity rescue (HEK293T cells; Supplementary Table 2, MLN4924-mediated cytotoxicity rescue, 10 µM used where n.d.) was 102%. For the same molecule, the IC50 (CDK12–cyclin K; Supplementary Table 2, read-out: Lanthascreen IC50 [nM] CDK12) was 2860 nM, the “Lanthascreen raw signal, sheet CDK12” value (CDK12–cyclin K; compound 0.038147 nM) was 0.01384 and 0.01435 and the “Lanthascreen raw signal, sheet CDK12” value (CDK12–cyclin K; compound 0.152588 nM) was 0.01397 and 0.0142. The “Lanthascreen raw signal, sheet CDK12” value (CDK12–cyclin K; compound 0.610352 nM) was 0.015 and 0.01469, the “Lanthascreen raw signal, sheet CDK12” value (CDK12–cyclin K; compound 9.76563 nM) was 0.01433 and 0.01471 and the “Lanthascreen raw signal, sheet CDK12” value (CDK12–cyclin K; compound 39.0625 nM) was 0.01481 and 0.01445. For the same molecule, the “Lanthascreen raw signal, sheet CDK12” value (CDK12–cyclin K; compound 156.25 nM) was 0.01408 and 0.01362, the “Lanthascreen raw signal, sheet CDK12” value (CDK12–cyclin K; compound 625 nM) was 0.01314 and 0.0125 and the “Lanthascreen raw signal, sheet CDK12” value (CDK12–cyclin K; compound 2500 nM) was 0.01076 and 0.01056. For the same molecule, the “Lanthascreen raw signal, sheet CDK12” value (CDK12–cyclin K; compound 10000 nM) was 0.008221 and 0.008078, the IC50 (CDK9–cyclin T; Supplementary Table 2, read-out: Lanthascreen IC50 [nM] CDK9) was 953 nM and the “Lanthascreen TR-FRET signal (raw ratio), sheet CDK9” value (CDK9–cyclin T; compound 0.038147 nM) was 0.01926 and 0.02033. The “Lanthascreen TR-FRET signal (raw ratio), sheet CDK9” value (CDK9–cyclin T; compound 0.152588 nM) was 0.01912 and 0.02064, the “Lanthascreen TR-FRET signal (raw ratio), sheet CDK9” value (CDK9–cyclin T; compound 0.610352 nM) was 0.01926 and 0.02032 and the “Lanthascreen TR-FRET signal (raw ratio), sheet CDK9” value (CDK9–cyclin T; compound 9.76563 nM) was 0.01956 and 0.02095. The “Lanthascreen TR-FRET signal (raw ratio), sheet CDK9” value (CDK9–cyclin T; compound 39.0625 nM) was 0.01859 and 0.0203, the “Lanthascreen TR-FRET signal (raw ratio), sheet CDK9” value (CDK9–cyclin T; compound 156.25 nM) was 0.01696 and 0.01861 and the “Lanthascreen TR-FRET signal (raw ratio), sheet CDK9” value (CDK9–cyclin T; compound 625 nM) was 0.01333 and 0.0154. The “Lanthascreen TR-FRET signal (raw ratio), sheet CDK9” value (CDK9–cyclin T; compound 2500 nM) was 0.009112 and 0.01043, the “Lanthascreen TR-FRET signal (raw ratio), sheet CDK9” value (CDK9–cyclin T; compound 10000 nM) was 0.007018 and 0.007122 and the “Lanthascreen signal, sheet CDK2” value (CDK2–cyclin A; Compound 0.038147 nM) was 0.01393 and 0.01328. For the same molecule, the “Lanthascreen signal, sheet CDK2” value (CDK2–cyclin A; Compound 0.152588 nM) was 0.01386 and 0.01382, the “Lanthascreen signal, sheet CDK2” value (CDK2–cyclin A; Compound 0.610352 nM) was 0.01425 and 0.01382 and the “Lanthascreen signal, sheet CDK2” value (CDK2–cyclin A; Compound 9.76563 nM) was 0.01432 and 0.01375. The “Lanthascreen signal, sheet CDK2” value (CDK2–cyclin A; Compound 39.0625 nM) was 0.01417 and 0.01371, the “Lanthascreen signal, sheet CDK2” value (CDK2–cyclin A; Compound 156.25 nM) was 0.01414 and 0.0141 and the “Lanthascreen signal, sheet CDK2” value (CDK2–cyclin A; Compound 625 nM) was 0.01356 and 0.01358. For the same molecule, the “Lanthascreen signal, sheet CDK2” value (CDK2–cyclin A; Compound 2500 nM) was 0.0127 and 0.009084, the “Lanthascreen signal, sheet CDK2” value (CDK2–cyclin A; Compound 10000 nM) was 0.01132 and 0.011 and the IC50 (CDK2–cyclin A; Lanthascreen, average, Extended Data Fig. 8, read-out: CDK2 IC50) was > 10000 nM. For the same molecule, the IC50 (CDK2–cyclin A; Supplementary Table 2, read-out: Lanthascreen IC50 [nM] CDK2) was > 10000 nM.
